# Laboratory results as given in US20100317673A1, “N-HETEROCYCLIC-IMIDAZO[1,2-a]PYRIDINE-2-CARBOXAMIDE DERIVATIVES, THEIR PREPARATION AND THEIR THERAPEUTIC APPLICATION” (SANOFI-AVENTIS, priority 2008, published 2010).
# Target: T1, mouse Nurr1 receptor (Mus musculus, UniProt Q06219)
# T1 construct: a cell line (N2A) endogenously expressing the mouse Nurr1 receptor; host or cells: Neuro-2A (N2A) mouse neuroblastoma cells stably transfected with 8NBRE-luciferase
# Test: In vitro activity on N2A cells (NBRE-luciferase reporter)
# Format: cell-based
# Conditions: N2A (Neuro-2A) cells endogenously expressing mouse Nurr1, stably transfected with 8NBRE-luciferase; 24 hours incubation
# Description: The activity of the compounds according to the invention was evaluated on a cell line (N2A) endogenously expressing the mouse Nurr1 receptor and stably transfected with the NOT binding response element (NBRE) coupled to the luciferase reporter gene. The EC50 values are between 0.01 and 1000 nM. The assays were carried out according to the procedure described below.
# The Neuro-2A cell line comes from a standard commercial source (ATCC). The Neuro-2A clone was obtained, from a spontaneous tumour originating from an A albino mouse strain, by R. J Klebe et al. This Neuro-2A line is subsequently stably transfected with 8NBRE-luciferase. The N2A-8NBRE cells are cultured until confluence in 75 cm^2 culture flasks containing DMEM supplemented with 10% of foetal calf serum, 4.5 g/l of glucose and 0.4 mg/ml of geneticin. After a week of culture, the cells are recovered with 0.25% trypsin for 30 seconds and then resuspended in DMEM without phenol red, containing 4.5 g/l of glucose and 10% of Hyclone delipidized serum, and deposited into transparent-bottom 96-well white plates. The cells are deposited at a rate of 60 000 per well in 75 μl for 24 hours before the addition of the products. The products are applied in 25 μl and incubated for a further 24 hours. On the day of the measurement, an equivalent volume (100 μl) of Steadylite is added to each well and then left for a period of 30 minutes in order to obtain complete cell lysis and maximum signal production. The plates are subsequently measured in a luminescence counter for microplates after having been sealed with an adhesive film. The products are prepared in the form of a stock solution at 10^−2M and then diluted in 100% of DMSO. Each product concentration is prediluted in culture medium before incubation with the cells, thus containing 0.625% final concentration of DMSO.
# T1 sequence (Q06219 whole entry): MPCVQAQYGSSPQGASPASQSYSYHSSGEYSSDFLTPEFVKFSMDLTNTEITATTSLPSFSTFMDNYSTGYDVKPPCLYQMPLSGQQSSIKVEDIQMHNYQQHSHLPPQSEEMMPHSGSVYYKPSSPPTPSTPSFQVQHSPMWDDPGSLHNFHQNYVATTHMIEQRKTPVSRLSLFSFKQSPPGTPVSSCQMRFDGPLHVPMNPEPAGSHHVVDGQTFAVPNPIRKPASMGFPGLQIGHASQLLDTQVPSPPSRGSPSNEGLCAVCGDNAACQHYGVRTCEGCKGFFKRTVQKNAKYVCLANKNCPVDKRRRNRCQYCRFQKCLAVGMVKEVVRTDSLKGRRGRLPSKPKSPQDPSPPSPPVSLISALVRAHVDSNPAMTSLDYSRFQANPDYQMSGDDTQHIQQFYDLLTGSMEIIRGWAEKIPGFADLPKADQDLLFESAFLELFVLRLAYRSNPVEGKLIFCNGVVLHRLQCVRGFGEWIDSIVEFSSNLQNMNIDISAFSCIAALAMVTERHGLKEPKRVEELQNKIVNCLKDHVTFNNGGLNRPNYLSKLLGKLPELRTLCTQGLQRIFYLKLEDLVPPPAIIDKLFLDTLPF
row,EC50 [nM],SMILES
1,10.5,"CN(C)c1ccc2nc(C(=O)Nc3ccon3)cn2c1 [Compound 39, 6-(Dimethylamino)-N-(isoxazol-3-yl)imidazo[1,2-a]pyridine-2-carboxamide]"
2,0.5,"CN(C)c1ccc2nc(C(=O)Nc3ccccn3)cn2c1 [Compound 8, 6-(Dimethylamino)-N-(pyridin-2-yl)imidazo[1,2-a]pyridine-2-carboxamide]"
3,0.04,"O=C(Nc1ccccn1)c1cn2cc(-c3cccc(CO)c3)ccc2n1 [Compound 7, 6-[3-(Hydroxymethyl)phenyl]-N-(pyridin-2-yl)imidazo[1,2-a]pyridine-2-carboxamide]"
4,2.2,"O=C(Nc1ccccn1)c1cn2cc(Cl)ccc2n1 [Compound 4, 6-Chloro-N-(pyridin-2-yl)imidazo[1,2-a]pyridine-2-carboxamide]"
